Source: publication PMC4205912, “Sea foam as a source of fungal inoculum for the isolation of biologically active natural products” (Mycology, 2014)
Converted amounts (≈) assume the structure as drawn. Where two headings read alike, the source gives them in different places.

What was measured:
S. warneri ATCC 17917 = experiment: microbroth antibiotic susceptibility testing, S. warneri; format: cell-based; details: Staphylococcus warneri; for IC50: read-out: S. warneri IC50; for MIC: read-out: S. warneri MIC
Description: (§1) All microbroth antibiotic susceptibility testing was carried out in triplicate in 96-well plates in accordance with Clinical Laboratory Standards Institute testing standards (NCCLS, [2003]) using the following pathogens: MRSA ATCC 33591 (MRSA), S. warneri ATCC 17917, VRE EF379 (VRE), Pseudomonas aeruginosa ATCC 14210, Proteus vulgaris ATCC 12454, and Candida albicans ATCC 14035. Extract fractions were assayed at 250 µg/mL while pure compounds were serially diluted to generate a range of 12 concentrations (128–0.0625 µg/mL) in a final well volume concentration of 2% DMSO(aq). […] The optical density of the plate was recorded using a Thermo Scientific Varioskan Flash plate reader at 600 nm at time zero and then again after incubation of the plates for 22 h at 37°C. After subtracting the time zero OD600 from the final reading, the percentages of microorganism survival relative to vehicle control wells were calculated.

VRE EF379 = experiment: microbroth antibiotic susceptibility testing, VRE; format: cell-based, vancomycin-resistant Enterococcus faecium; details: Enterococcus, VRE; for IC50: read-out: VRE IC50; for MIC: read-out: VRE MIC
Description: as §1

[1] = tested on: adult human epidermal keratinocytes (HEKa); experiment: cytotoxicity assay (Alamar blue), keratinocytes; format: cell-based; details: Homo sapiens; HeKa cells, 24 h; read-out: Keratinocyte IC50
Description: (§2) Human foreskin BJ fibroblast cells (ATCC CRL-2522), adult human epidermal keratinocytes (HEKa), and human breast adenocarcinoma cells (ATCC HTB-26) were grown to 80% confluency (growth conditions are provided in Supplementary Materials and Methods), the cells were counted, diluted, and plated into treated 96-well cell culture plates. The BJ fibroblast and HEKa cells were plated at a cell density of 10,000 cells per well and the HTB-26 cells were plated at cell density of 5000 cells per well in 90 µL of respective growth medium (without the addition of antibiotics) and incubated for 24 h to allow cells to adhere to the plates before treatment. Pure compounds were tested in triplicate in serial dilutions of eight concentrations ranging from 128 µg/mL to 1 µg/mL per well (final well volume of 100 µL, 1% DMSO per well). Each of the cell lines were incubated at 37°C in a humidified atmosphere of 5% CO2; the BJ fibroblast and HEKa cells for 24 h and the HTB-26 cells for 72 h. Each plate contained four uninoculated positive controls, four untreated negative controls, and one column containing a concentration range of zinc pyrithione or doxorubicin. Alamar blue was added, 24 h after the treatment, and fluorescence was monitored using a Thermo Scientific Varioskan Flash plate reader at 560/12 excitation, 590 nm emission both at time zero and 4 h after Alamar blue addition. The inferred percentage of cell viability relative to vehicle control wells were calculated after subtracting the time zero emission 590 nm measurement from the final reading and the IC50 was determined.

[2] = tested on: Pseudomonas aeruginosa ATCC 14210; experiment: microbroth antibiotic susceptibility testing, P. aeruginosa; format: cell-based; details: Pseudomonas aeruginosa, ATCC14210; triplicate, averaged; 22 h at 37°C
Description: as §1

[3] = tested on: Candida albicans ATCC 14035; experiment: microbroth susceptibility testing, C. albicans; format: cell-based; details: for IC50 / MIC: Candida albicans, ATCC14035
Description: as §1

[4] = tested on: Proteus vulgaris ATCC 12454; experiment: microbroth antibiotic susceptibility testing, P. vulgaris; format: cell-based; details: Proteus vulgaris, ATCC12454; triplicate, averaged; 22 h at 37°C
Description: as §1, with “14035.” for “14035. Extract fractions were assayed at 250 µg/mL while pure compounds were serially diluted to generate a range of 12 concentrations (128–0.0625 µg/mL) in a final well volume concentration of 2% DMSO(aq).”

MRSA ATCC 33591 = experiment: microbroth antibiotic susceptibility testing, MRSA; format: cell-based, methicillin-resistant Staphylococcus aureus; details: Staphylococcus aureus; for IC50: read-out: MRSA IC50; for MIC: read-out: MRSA MIC
Description: as §1

[5] = tested on: Human foreskin BJ fibroblast cells (ATCC CRL-2522); experiment: cytotoxicity assay (Alamar blue), fibroblasts; format: cell-based; details: for IC50: Homo sapiens, 24 h, read-out: Fibroblast IC50
Description: as §2

[6] = tested on: human breast adenocarcinoma cells (ATCC HTB-26); experiment: cytotoxicity assay (Alamar blue), HTB-26; format: cell-based; details: for IC50: Homo sapiens, HTB26, 72 h, read-out: HTB-26 IC50
Description: as §2

[7] = tested on: erythropoietin gene expression; design: method as in Cai et al. [1998]; details: at a concentration of 1–1.6 µM; ref Cai et al. [1998]; cited from earlier work
[8] = ATCC17917, triplicate, averaged, 22 h at 37°C
[9] = triplicate, averaged, 22 h at 37°C
[10] = HTB-26 breast cancer cells, 72 h
[11] = at a concentration of 128 μg/mL

| Compound | IC50 (S. warneri ATCC 17917; [8]) [µg/mL] | MIC (S. warneri ATCC 17917; [8]) [µg/mL] | IC50 (VRE EF379; [9]) [µg/mL] | MIC (VRE EF379; [9]) [µg/mL] | IC50 [1] [µg/mL] | IC50 [2] [µg/mL] | MIC [2] [µg/mL] | IC50 [3, 9] [µg/mL] | MIC [3, 9] [µg/mL] | IC50 [4] [µg/mL] | MIC [4] [µg/mL] | IC50 (MRSA ATCC 33591; [9]) [µg/mL] | MIC (MRSA ATCC 33591; [9]) [µg/mL] | IC50 ([5]; BJ cells) [µg/mL] | HTB-26 MIC [6, 10] [µg/mL] | IC50 [6, 10] [µg/mL] | other results |
| --- | --- | --- | --- | --- | --- | --- | --- | --- | --- | --- | --- | --- | --- | --- | --- | --- | --- |
| Cc1cc(CO)c2c(=O)c3c(O)cccc3oc2c1 [1-hydroxy-6-methyl-8-hydroxymethylxanthone] | > 128 | > 128 | > 128 | > 128 | 12 (≈ 46.8 µM) | > 128 | > 128 | > 128 | > 128 | > 128 | > 128 | > 128 | > 128 | 29 (≈ 113 µM) | 32 | 24 (≈ 93.7 µM) |  |
| C[C@H]1CCC/C=C/[C@@H]2C[C@H](O)C[C@H]2[C@H](O)/C=C/C(=O)O1 [Brefeldin A, brefeldin A] | > 128 | > 128 | > 128 | > 128 | 0.5 (≈ 1.78 µM) | > 128 | > 128 | 20 (≈ 71.3 µM) | 128 (≈ 457 µM) | > 128 | > 128 | > 128 | > 128 | > 64 |  | > 0.5 | effect against C. albicans [3]: antifungal effect |
| Cc1cc(O)c2c(c1)C(C1c3cccc(O)c3C(=O)c3c(O)cc(C)cc31)c1cccc(O)c1C2=O (centres unmarked) [Chrysophanol bianthrone, chrysophanol bianthrone] | > 128 | > 128 | 128 (≈ 268 µM) | > 128 | > 64 | > 128 | > 128 | > 128 | > 128 | > 128 | > 128 | > 128 | > 128 | > 64 | 64 | 5 (≈ 10.4 µM) |  |
| Cc1cc(O)c2c(c1)C(=O)c1cccc(O)c1C2=O [Chrysophanol, chrysophanol] | > 128 | > 128 | > 128 | > 128 | > 64 | > 128 | > 128 | > 128 | > 128 | > 128 | > 128 | > 128 | > 128 | > 64 | >64 | > 64 | activity against fibroblast cell line [5, 11]: inactive; activity against HTB-26 cell line [6, 11]: inactive |
| COc1cccc2c1C(=O)c1c(O)c3c(c(O)c1C2=O)C[C@@](O)(C(=O)CO)C[C@@H]3O[C@H]1C[C@H](N)[C@H](O)[C@H](C)O1 [Doxorubromycin, doxorubicin, reference compound] |  |  |  |  |  |  |  |  |  |  |  |  |  |  | >16 | 2.5 (≈ 4.6 µM) |  |
| Cc1cc(=O)c(O)cc2c1C[C@H]1CC(C)(C)/C=C/C[C@@]3(C)Oc4cc(O)cc(C)c4C[C@@H]3C[C@H](O)[C@]1(C)O2 [Epolone A, epolone A] | 33 (≈ 63.4 µM) | 64 (≈ 123 µM) | 44 (≈ 84.5 µM) | > 64 | 13 (≈ 25 µM) | > 128 | > 128 | > 64 | > 64 | > 64 | > 64 | 48 (≈ 92.2 µM) | 64 (≈ 123 µM) | 14 (≈ 26.9 µM) |  |  | induction of erythropoietin gene expression [7]: five-fold |
| C/C1=C\C(C)(C)/C=C/C[C@@]2(C)Oc3cc(O)c(=O)cc(C)c3CC2C[C@@H](O)C1 (some centres unmarked) [Epolone B, epolone B] |  |  | 52 (≈ 135 µM) | > 64 | 50 (≈ 130 µM) | > 128 | > 128 | 43 (≈ 112 µM) | 64 (≈ 166 µM) | > 64 | > 64 | 48 (≈ 125 µM) | 64 (≈ 166 µM) | > 128 |  |  | induction of erythropoietin gene expression [7]: five-fold; effect against C. albicans [3]: inhibitory effect |
| CC(C)C12SSSSC3(C(=O)N1C)C1OC45C(=O)N(C)C(CO)C(=O)N4C4Nc6ccccc6C4(C5O)C14c1ccccc1NC4N3C2=O (centres unmarked) [Leptosin J, leptosin J] | 9 (≈ 12.1 µM) | 64 (≈ 86.4 µM) |  |  | > 0.5 | > 128 | > 128 | > 128 | > 128 | > 128 | > 128 |  |  |  | 0.5 |  | IC50 (VRE EF379; 22 h): 128 µg/mL (≈ 173 µM); MIC (VRE EF379; 22 h): > 128 µg/mL; IC50 (MRSA ATCC 33591; 22 h): 0.7 µg/mL (≈ 0.945 µM); MIC (MRSA ATCC 33591; 22 h): 2 µg/mL (≈ 2.7 µM); IC50 ([5]; BJ): 0.5 µg/mL (≈ 0.675 µM); IC50 [6]: > 0.5 µg/mL |
| C[C@@H]1[C@H](O)[C@@H](C)/C=C/C=C/CC/C=C/C=C/C=C/C=C/C(O[C@H]2O[C@H](C)[C@@H](O)[C@H](N)[C@@H]2O)CC2O[C@](O)(CC(O)C(O)CCC(O)CC(O)CC(O)CC(=O)O[C@H]1C)CC(O)C2C(=O)O (some centres unmarked) [Nystatin, nystatin, reference compound] |  |  |  |  |  |  |  |  |  |  |  |  |  |  |  |  | C. albicans IC50 [3, 9]: 0.92 µg/mL; C. albicans MIC [3, 9]: 1.6 µg/mL |
| CO[C@H]1/C=C/O[C@@]2(C)Oc3c(C)c(O)c4c(O)c(c(/C=N/N5CCN(C)CC5)c(O)c4c3C2=O)NC(=O)/C(C)=C\C=C\[C@H](C)[C@H](O)[C@@H](C)[C@@H](O)[C@@H](C)[C@H](OC(C)=O)[C@@H]1C [Rifampicin, rifampicin, reference compound] |  |  | 0.5 (≈ 0.608 µM) | 2 (≈ 2.43 µM) |  |  |  |  |  |  |  |  |  |  |  |  |  |
| COC1=C(Cl)C(C)(O)c2c(oc(=O)c3c(O)cc(OC)cc23)C1=O (centres unmarked) [TMC-264] | 23 (≈ 65.2 µM) | 64 (≈ 181 µM) | 100 (≈ 284 µM) | > 128 | 1 (≈ 2.84 µM) | > 128 | > 128 | > 128 | > 128 | > 128 | > 128 | 14 (≈ 39.7 µM) | 64 (≈ 181 µM) | 13 (≈ 36.9 µM) | 8 | 2.8 (≈ 7.94 µM) |  |
| CN[C@H](CC(C)C)C(=O)N[C@H]1C(=O)N[C@@H](CC(N)=O)C(=O)N[C@H]2C(=O)N[C@H]3C(=O)N[C@H](C(=O)N[C@H](C(=O)O)c4cc(O)cc(O)c4-c4cc3ccc4O)[C@H](O)c3ccc(c(Cl)c3)Oc3cc2cc(c3O[C@@H]2O[C@H](CO)[C@@H](O)[C@H](O)[C@H]2O[C@H]2C[C@](C)(N)[C@H](O)[C@H](C)O2)Oc2ccc(cc2Cl)[C@H]1O [Vancomycin, vancomycin, reference compound] |  |  |  |  |  |  |  |  |  |  |  |  |  |  |  |  | IC50 (S. warneri ATCC 17917; ATCC17917, 22 h): 0.75 µg/mL (≈ 0.518 µM); MIC (S. warneri ATCC 17917; ATCC17917, 22 h): 1 µg/mL (≈ 0.69 µM); IC50 (MRSA ATCC 33591; 22 h): 0.88 µg/mL (≈ 0.607 µM); MIC (MRSA ATCC 33591; 22 h): 1.6 µg/mL (≈ 1.1 µM) |
